Literature values, collected in US20100172993A1, “PARTICLES FOR DELIVERY OF ACTIVE INGREDIENTS, PROCESS OF MAKING AND COMPOSITIONS THEREOF” (priority 2006, published 2010).

Conditions: topical insect repellent

## CCN(CC)C(=O)c1ccccc1 [NN Diethyl Benzamide]
  Absorption of the active ingredient in the blood plasma after dermal application: no absorption of the active ingredient in the blood plasma
